Blank lines part the entries; values can stand above or below the molecule they belong to. Bridge positions count the residues as written; N and C are the ends. Ends that are not written are not given here.
Experiments:
pro-FSAP in human plasma [1] = molecular target: T1, pro-FSAP in human plasma (Homo sapiens, UniProt Q14520); settings: NNKC9/41; cited from earlier work
T1 construct: from tissue; host or cells: human hirudin or citrate plasma from healthy donors, diluted 1:12
Description: The contact pathway of blood coagulation is activated by negatively charged surfaces,[44] and we also tested whether it was involved in any way in the pro-FSAP activation process. […] The kallikrein inhibitor PKS1-527 had no effect,[43] but aprotinin, a general serine protease inhibitor, blocked pro-FSAP activation/activ ...

pro-FSAP in human plasma [2] = molecular target: T1, pro-FSAP in human plasma; experiment: Activation of endogenous pro-FSAP in plasma, fluorogenic substrate turnover; type: biochemical
Description: Human citrate plasma (0.38% w/v) or hirudin plasma (25 μg/mL Lepirudin) was obtained from five healthy donors. Plasma was diluted at 1:12 and mixed with various test substances that potentially activate or inhibit pro-FSAP. Ac–Ala–Lys–Nle–Arg–AMC (amino–methyl–coumarin) was used as a sensitive and specific substrate for FSAP.[35] Hydrolysis of the fluorogenic substrates was measured using a Synergy HI plate reader with excitation at 320 nm and emission at 460 nm at 37 °C for 60 min. The maximal velocity was calculated from the linear part of the progress curve. In limited experiments, the second-generation fluorogenic FSAP substrate (Ac–Pro–DTyr–Lys–Arg–AMC)[34] was used. Pro-uPA activation, formation of FSAP−α2-antiplasmin, and western blotting with anti-FSAP antibodies were also used to monitor pro-FSAP activation.

[3] = molecular target: T2, pro-FSAP purified from human plasma (Homo sapiens, UniProt Q14520); experiment: Pro-FSAP activation assay, purified pro-FSAP, chromogenic substrate S-2288; type: biochemical
T2 construct: Pro-FSAP was isolated from human plasma as described before; from tissue; host or cells: human plasma
T2 sequence (Q14520 24-560): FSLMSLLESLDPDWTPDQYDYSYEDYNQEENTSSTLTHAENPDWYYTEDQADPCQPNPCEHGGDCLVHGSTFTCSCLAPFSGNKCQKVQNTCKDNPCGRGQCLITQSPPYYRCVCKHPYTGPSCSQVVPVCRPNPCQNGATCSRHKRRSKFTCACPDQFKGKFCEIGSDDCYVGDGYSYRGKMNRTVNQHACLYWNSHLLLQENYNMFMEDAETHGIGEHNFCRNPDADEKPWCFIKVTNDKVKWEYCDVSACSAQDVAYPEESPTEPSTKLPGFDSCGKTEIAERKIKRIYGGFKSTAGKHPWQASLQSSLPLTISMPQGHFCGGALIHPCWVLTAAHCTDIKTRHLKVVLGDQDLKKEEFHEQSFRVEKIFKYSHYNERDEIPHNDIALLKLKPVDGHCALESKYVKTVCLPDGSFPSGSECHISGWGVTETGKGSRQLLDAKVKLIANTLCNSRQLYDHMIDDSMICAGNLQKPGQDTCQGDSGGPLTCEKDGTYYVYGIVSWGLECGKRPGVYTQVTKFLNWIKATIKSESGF
Description: Figure 1 Isolation of pro-FSAP binding peptides and their activity: (A) strategy to isolate high-affinity phages from the NNKC9 and NNK11 libraries that bind to pro-FSAP. To select for strong binders, an excess of free pro-FSAP protein was used for competitive elution of low-affinity binders. High-affinity binders retained on the beads were analyzed further. The sequences of major positive clones identified through an ELISA-based binding assay from the NNKC9 and NNK11 libraries are shown. (B) NNK11/189 and scrambled controls (0–50 μM) and histones (0–50 μg/mL) were added to purified pro-FSAP (1.0 μg/mL) and the turnover of the chromogenic substrate S-2288 (200 μM) was measured. (C) NNKC9/41 was compared to a peptide that was synthetically monocyclized (Cys–Cys cyclic), a peptide with Ser residues instead of Cys at both ends (Ser–Ser linear), a peptide with Ser residues at the end cyclized head to tail (Ser–Ser cyclic), and a scrambled peptide in a pro-FSAP activation assay. (D) Hirudin plasma (1:12 dilution) was incubated with histones (25 μg/mL), NNKC9/41, or Ser–Ser linear control (each, 25 μM), the fluorogenic substrate turnover (Ac–Ala–Lys–Nle–Arg–AMC) was monitored in duplicate wells, and results from a single well are shown. In panels (B) and (C), results are shown as mean + range (duplicate wells). Results were replicated with five different batches of NNKC9/41 (panels (B) and (C)).
Pro-FSAP was isolated from human plasma as described before.[14] The content of the zymogen form varied from 50% to 90% due to autoactivation during the purification process. Histones, isolated from the calf thymus, were obtained from Sigma-Aldrich (Oslo, Norway). FSAP activity assays were performed as described previously.[51] In brief, microtiter wells were blocked with TBS (25 mM Tris–HCl, pH 7.5, and 150 mM NaCl) containing 3% (w/v) BSA for 1 h and washed with TBS-T. The standard assay consisted of TBS-T with 0.3% (w/v) BSA and CaCl2 (2 mM) 1 μg/mL (15 nM) plasma purified pro-FSAP and 250 μM chromogenic substrate S-2288 (D-Ile-L-Pro-L-Arg-p-nitroaniline dihydrochloride) (Haemochrome Diagnostica, Essen, Germany) and was followed at 37 °C at 405 nm in a microplate reader Synergy HI plate reader (BioTek Instruments, Winooski). In some experiments, a fluorescent substrate of FSAP[35] was used.

purified pro-FSAP = settings: heparin ref 13, 14; nucleic acids ref 15, 16; dextran sulfate ref 13; cited from earlier work
Description: This leads to cleavag ...

EGF3 domain of FSAP = settings: cited from earlier work
Description: To identify the domain of FSAP responsible for binding to NNKC9/41, we expressed various domain deletion mutants of pro-FSAP as His-tagged proteins in E. coli as described before.[36] The N-terminus of pro- FSAP (heavy chain) consists of the intrinsically disordered N-terminal region (NTR), three EGF domains, and a kringle domain, whereas the C-terminal-light chain contains the serine protease domain (SPD) (Figure 2C). […] The recombinant proteins (Figure 2D) were captured on polyclonal FSAP an ...

[4] = hirudin plasma, Ac–Pro–DTyr–Lys–Arg–AMC (Fig S3)

T1 sequence (Q14520 24-560): as above

Molecule: Cl.NCC1CCC(C(=O)N[C@@H](Cc2ccccc2)C(=O)Nc2ccc(CC(=O)O)cc2)CC1 (stereo partly shown) [PKS1-527]
effect of kallikrein inhibitor (pro-FSAP in human plasma [1]): had no effect

presence in HPLC fractions active in pro-FSAP activation (pro-FSAP in human plasma [2]; RP-HPLC fractions of NNKC9/41 tested in hirudin plasma, LC–MS (Fig S1)): found in all of the active fractions | maximal activity vs NNKC9/41 (pro-FSAP in human plasma [2]; [4]): slightly lower
Molecule: CRGAMWMYKRC (disulfide 1-11 (inferred)) [cyclic dimer, antiparallel cyclic dimer of NNKC9/41 through terminal Cys groups]
activity at higher concentrations (pro-FSAP in human plasma [2]; [4]): pronounced decrease in activity at higher concentrations

EC50 ([3]; purified pro-FSAP activation, S-2288, linear synthetic peptide stored under oxidative conditions, five batches): 8 to 15 µM
Molecule: CRGAMWMYKRC (not fully specified (N-terminus); also: oxidation gives mixture of Cys1-Cys11 monocycle and disulfide-linked antiparallel dimers) [NNKC9/41]

Molecule: IDCLMQNAGSA [NNK11/189]
effect on pro-FSAP activation ([3]; purified pro-FSAP 1.0 μg/mL, peptides 0–50 μM, histones 0–50 μg/mL, S-2288 (200 μM in legend b10, 250 μM in method b60), 37 °C, 405 nm, duplicate wells): did not have any effect on pro-FSAP activation

effect of inhibitor on pro-FSAP activation by the peptide (pro-FSAP in human plasma [2]; hirudin plasma 1:12, NNKC9/41 25 μM, CTI 80 μg/mL, aprotinin 100 μg/mL, MA-570 20 μg/mL, read-outs of Fig 4D–F (MA-FSAP-570 only Fig 4D,E)): blocked pro-FSAP activation/activity
Molecule: aprotinin [reference compound]

Molecule: dextran sulfate
activation of purified pro-FSAP (purified pro-FSAP): activate purified pro-FSAP

Molecule: heparin
binding to the EGF3 domain (EGF3 domain of FSAP): binds to the EGF3 domain | activation of purified pro-FSAP (purified pro-FSAP): activate purified pro-FSAP

— publication PMC9486805, “Identification of a Phage Display-Derived Peptide Interacting with the N-Terminal Region of Factor VII Activating Protease (FSAP) Enables Characterization of Zymogen Activation” (ACS Chemical Biology, 2022)
